Reference: ChEMBL document CHEMBL2073817 (J Pharmacol Exp Ther, 2002)
Blank lines part the entries; values can stand above or below the molecule they belong to.

Experiments:
[1] = molecular target: T1, OAT4 (Solute carrier family 22 member 11) (Homo sapiens, UniProt Q9NSA0); experiment: TP_TRANSPORTER: inhibition of MTX uptake (MTX: 1 uM, Ketoprofen: 1000 uM) in OAT4-expressing S2 cells; format: functional, cell-based; parameters: scale not given: the % may be the effect or the level left; conditions: mouse, probe MTX, read-out: Activity
T1 sequence (Q9NSA0 whole entry): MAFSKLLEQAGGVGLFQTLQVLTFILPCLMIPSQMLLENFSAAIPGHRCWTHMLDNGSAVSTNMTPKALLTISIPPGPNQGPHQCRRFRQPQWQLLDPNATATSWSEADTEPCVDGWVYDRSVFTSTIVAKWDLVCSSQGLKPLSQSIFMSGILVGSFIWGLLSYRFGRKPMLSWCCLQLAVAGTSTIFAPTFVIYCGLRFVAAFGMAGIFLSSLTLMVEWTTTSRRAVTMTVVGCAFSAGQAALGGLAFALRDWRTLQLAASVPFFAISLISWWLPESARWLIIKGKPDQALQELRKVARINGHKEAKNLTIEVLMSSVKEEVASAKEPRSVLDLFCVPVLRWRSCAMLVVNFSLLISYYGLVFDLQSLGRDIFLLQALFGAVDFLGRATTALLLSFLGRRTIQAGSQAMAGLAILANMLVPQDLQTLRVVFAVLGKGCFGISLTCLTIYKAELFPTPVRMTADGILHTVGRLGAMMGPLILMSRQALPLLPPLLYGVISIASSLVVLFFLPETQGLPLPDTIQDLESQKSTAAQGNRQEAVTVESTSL

[2] = molecular target: T2, OAT1 (Solute carrier family 22 member 6) (Homo sapiens, UniProt Q4U2R8); experiment: TP_TRANSPORTER: inhibition of MTX uptake (MTX: 1 uM, Ketoprofen: 1000 uM) in OAT1-expressing S2 cells; format: functional, cell-based; parameters: scale not given: the % may be the effect or the level left; conditions: probe MTX, read-out: Activity
T2 sequence (Q4U2R8 whole entry): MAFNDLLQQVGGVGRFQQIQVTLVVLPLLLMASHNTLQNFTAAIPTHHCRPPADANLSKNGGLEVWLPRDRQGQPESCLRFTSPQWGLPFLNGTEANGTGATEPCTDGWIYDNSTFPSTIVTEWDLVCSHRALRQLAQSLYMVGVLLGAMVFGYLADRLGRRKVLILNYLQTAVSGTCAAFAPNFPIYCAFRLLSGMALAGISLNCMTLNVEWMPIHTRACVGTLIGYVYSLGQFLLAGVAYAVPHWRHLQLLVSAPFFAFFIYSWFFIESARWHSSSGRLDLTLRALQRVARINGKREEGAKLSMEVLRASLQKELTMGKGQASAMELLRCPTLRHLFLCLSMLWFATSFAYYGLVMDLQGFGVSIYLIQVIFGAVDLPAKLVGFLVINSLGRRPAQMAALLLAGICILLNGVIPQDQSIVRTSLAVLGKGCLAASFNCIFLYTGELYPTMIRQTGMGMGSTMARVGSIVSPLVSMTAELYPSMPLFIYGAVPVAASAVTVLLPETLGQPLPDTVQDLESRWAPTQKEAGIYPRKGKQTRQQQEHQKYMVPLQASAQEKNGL

[3] = molecular target: T3, Organic anion transporter 3 (Homo sapiens, UniProt Q8TCC7); experiment: TP_TRANSPORTER: inhibition of MTX uptake in OAT3-expressing S2 cells; format: functional, cell-based
T3 sequence (Q8TCC7 whole entry): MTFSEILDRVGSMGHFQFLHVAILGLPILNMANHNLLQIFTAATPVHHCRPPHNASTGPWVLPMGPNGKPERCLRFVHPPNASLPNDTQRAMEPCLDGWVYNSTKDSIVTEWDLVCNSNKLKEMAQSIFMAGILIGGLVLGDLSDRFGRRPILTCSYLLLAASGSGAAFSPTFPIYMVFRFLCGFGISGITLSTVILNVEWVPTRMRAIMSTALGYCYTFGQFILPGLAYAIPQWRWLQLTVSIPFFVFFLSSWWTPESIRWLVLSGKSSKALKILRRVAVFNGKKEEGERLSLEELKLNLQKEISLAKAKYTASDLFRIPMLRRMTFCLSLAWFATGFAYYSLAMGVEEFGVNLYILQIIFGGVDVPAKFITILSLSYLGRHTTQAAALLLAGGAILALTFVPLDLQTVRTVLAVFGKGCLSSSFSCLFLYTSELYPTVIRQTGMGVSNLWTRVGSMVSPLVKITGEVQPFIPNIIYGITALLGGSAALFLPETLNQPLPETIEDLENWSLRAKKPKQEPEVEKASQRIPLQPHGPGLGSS

[4] = molecular target: T1, OAT4 (Solute carrier family 22 member 11); experiment: TP_TRANSPORTER: inhibition of MTX uptake (MTX: 1 uM, Probenecid: 1000 uM) in OAT4-expressing S2 cells; format: functional, cell-based; parameters: scale not given: the % may be the effect or the level left; conditions: probe MTX, read-out: Activity
[5] = molecular target: T1, OAT4 (Solute carrier family 22 member 11); experiment: TP_TRANSPORTER: inhibition of MTX uptake (MTX: 1 uM, Indomethacin: 500 uM) in OAT4-expressing S2 cells; format: functional, cell-based; parameters: scale not given: the % may be the effect or the level left; conditions: probe MTX, read-out: Activity
[6] = molecular target: T2, OAT1 (Solute carrier family 22 member 6); experiment: TP_TRANSPORTER: inhibition of MTX uptake (MTX: 1 uM, Indomethacin: 500 uM) in OAT1-expressing S2 cells; format: functional, cell-based; parameters: scale not given: the % may be the effect or the level left; conditions: mouse, probe MTX, read-out: Activity
[7] = molecular target: T1, OAT4 (Solute carrier family 22 member 11); experiment: TP_TRANSPORTER: inhibition of MTX uptake (MTX: 1 uM, Phenylbutazone: 1000 uM) in OAT4-expressing S2 cells; format: functional, cell-based; parameters: scale not given: the % may be the effect or the level left; conditions: probe MTX, read-out: Activity
[8] = molecular target: T2, OAT1 (Solute carrier family 22 member 6); experiment: TP_TRANSPORTER: inhibition of MTX uptake (MTX: 1 uM, Phenylbutazone: 1000 uM) in OAT1-expressing S2 cells; format: functional, cell-based; parameters: scale not given: the % may be the effect or the level left; conditions: probe MTX, read-out: Activity
[9] = molecular target: T1, OAT4 (Solute carrier family 22 member 11); experiment: TP_TRANSPORTER: inhibition of MTX uptake (MTX: 1 uM, PCG: 1000 uM) in OAT4-expressing S2 cells; format: functional, cell-based; parameters: scale not given: the % may be the effect or the level left; conditions: mouse, probe MTX, read-out: Activity
[10] = molecular target: T1, OAT4 (Solute carrier family 22 member 11); experiment: TP_TRANSPORTER: inhibition of MTX uptake (MTX: 1 uM, Ibuprofen: 1000 uM) in OAT4-expressing S2 cells; format: functional, cell-based; parameters: scale not given: the % may be the effect or the level left; conditions: probe MTX, read-out: Activity
[11] = molecular target: T1, OAT4 (Solute carrier family 22 member 11); experiment: TP_TRANSPORTER: inhibition of MTX uptake (MTX: 1 uM, Piroxicam: 1000 uM) in OAT4-expressing S2 cells; format: functional, cell-based; parameters: scale not given: the % may be the effect or the level left; conditions: mouse, probe MTX, read-out: Activity
[12] = substrate: CN(Cc1cnc2nc(N)nc(N)c2n1)c1ccc(C(=O)N[C@@H](CCC(=O)O)C(=O)O)cc1; experiment: TP_TRANSPORTER: uptake in OAT1-expressing S2 cells; format: functional, cell-based
[13] = substrate: CN(Cc1cnc2nc(N)nc(N)c2n1)c1ccc(C(=O)N[C@@H](CCC(=O)O)C(=O)O)cc1; experiment: cells, lysate or membranes named

activity at 1000 µM [1]: 81%
activity at 1000 µM [2]: 53.4%
Ki [3]: 1160 µM
Molecule: CC(C(=O)O)c1cccc(C(=O)c2ccccc2)c1 (centres undefined) [KETOPROFEN]

activity at 1000 µM [4]: 81.6%
Molecule: CCCN(CCC)S(=O)(=O)c1ccc(C(=O)O)cc1 [PROBENECID]

activity at 500 µM [5]: 60.9%
activity at 500 µM [6]: 60.6%
Ki [3]: 5.95 µM
Molecule: COc1ccc2c(c1)c(CC(=O)O)c(C)n2C(=O)c1ccc(Cl)cc1 [INDOMETHACIN]

activity at 1000 µM [7]: 55.7%
Ki [3]: 34.7 µM
activity at 1000 µM [8]: 30%
Molecule: CCCCC1C(=O)N(c2ccccc2)N(c2ccccc2)C1=O [PHENYLBUTAZONE]

activity at 1000 µM [9]: 79.7%
Ki [3]: 97.6 µM
Molecule: CC1(C)S[C@@H]2[C@H](NC(=O)Cc3ccccc3)C(=O)N2[C@H]1C(=O)O [PENICILLIN G]

activity at 1000 µM [11]: 62%
Ki [3]: 1200 µM
Molecule: CN1C(C(=O)Nc2ccccn2)=C(O)c2ccccc2S1(=O)=O [PIROXICAM]

More lines, now with the values behind:

Molecule: O=C(O)c1ccccc1O [SALICYLIC ACID]
Ki [3]: 1020 µM

Molecule: CC(C)Cc1ccc(C(C)C(=O)O)cc1 (centres undefined) [IBUPROFEN]
activity at 1000 µM [10]: 67.8%

B1: Organic anion transporter 3 (Homo sapiens) (protein)
chain: MTFSEILDRVGSMGHFQFLHVAILGLPILNMANHNLLQIFTAATPVHHCRPPHNASTGPWVLPMGPNGKPERCLRFVHPPNASLPNDTQRAMEPCLDGWVYNSTKDSIVTEWDLVCNSNKLKEMAQSIFMAGILIGGLVLGDLSDRFGRRPILTCSYLLLAASGSGAAFSPTFPIYMVFRFLCGFGISGITLSTVILNVEWVPTRMRAIMSTALGYCYTFGQFILPGLAYAIPQWRWLQLTVSIPFFVFFLSSWWTPESIRWLVLSGKSSKALKILRRVAVFNGKKEEGERLSLEELKLNLQKEISLAKAKYTASDLFRIPMLRRMTFCLSLAWFATGFAYYSLAMGVEEFGVNLYILQIIFGGVDVPAKFITILSLSYLGRHTTQAAALLLAGGAILALTFVPLDLQTVRTVLAVFGKGCLSSSFSCLFLYTSELYPTVIRQTGMGVSNLWTRVGSMVSPLVKITGEVQPFIPNIIYGITALLGGSAALFLPETLNQPLPETIEDLENWSLRAKKPKQEPEVEKASQRIPLQPHGPGLGSS
Km [12]: 21.1 µM

B2: Solute carrier family 22 member 11 (Homo sapiens) (protein)
chain: MAFSKLLEQAGGVGLFQTLQVLTFILPCLMIPSQMLLENFSAAIPGHRCWTHMLDNGSAVSTNMTPKALLTISIPPGPNQGPHQCRRFRQPQWQLLDPNATATSWSEADTEPCVDGWVYDRSVFTSTIVAKWDLVCSSQGLKPLSQSIFMSGILVGSFIWGLLSYRFGRKPMLSWCCLQLAVAGTSTIFAPTFVIYCGLRFVAAFGMAGIFLSSLTLMVEWTTTSRRAVTMTVVGCAFSAGQAALGGLAFALRDWRTLQLAASVPFFAISLISWWLPESARWLIIKGKPDQALQELRKVARINGHKEAKNLTIEVLMSSVKEEVASAKEPRSVLDLFCVPVLRWRSCAMLVVNFSLLISYYGLVFDLQSLGRDIFLLQALFGAVDFLGRATTALLLSFLGRRTIQAGSQAMAGLAILANMLVPQDLQTLRVVFAVLGKGCFGISLTCLTIYKAELFPTPVRMTADGILHTVGRLGAMMGPLILMSRQALPLLPPLLYGVISIASSLVVLFFLPETQGLPLPDTIQDLESQKSTAAQGNRQEAVTVESTSL
Km [12]: 17.8 µM

B3: Solute carrier family 22 member 6 (Homo sapiens) (protein)
chain: MAFNDLLQQVGGVGRFQQIQVTLVVLPLLLMASHNTLQNFTAAIPTHHCRPPADANLSKNGGLEVWLPRDRQGQPESCLRFTSPQWGLPFLNGTEANGTGATEPCTDGWIYDNSTFPSTIVTEWDLVCSHRALRQLAQSLYMVGVLLGAMVFGYLADRLGRRKVLILNYLQTAVSGTCAAFAPNFPIYCAFRLLSGMALAGISLNCMTLNVEWMPIHTRACVGTLIGYVYSLGQFLLAGVAYAVPHWRHLQLLVSAPFFAFFIYSWFFIESARWHSSSGRLDLTLRALQRVARINGKREEGAKLSMEVLRASLQKELTMGKGQASAMELLRCPTLRHLFLCLSMLWFATSFAYYGLVMDLQGFGVSIYLIQVIFGAVDLPAKLVGFLVINSLGRRPAQMAALLLAGICILLNGVIPQDQSIVRTSLAVLGKGCLAASFNCIFLYTGELYPTMIRQTGMGMGSTMARVGSIVSPLVSMTAELYPSMPLFIYGAVPVAASAVTVLLPETLGQPLPDTVQDLESRWAPTQKEAGIYPRKGKQTRQQQEHQKYMVPLQASAQEKNGL
Km [13]: 554 µM
